For six molecules, inhibition and IC50 results are on record in ChEMBL document CHEMBL4811252, “Identification of novel 1,3-diaryl-1,2,4-triazole-capped histone deacetylase 6 inhibitors with potential anti-gastric cancer activity” (Eur J Med Chem, 2021).

Test [1] deals with T1, Histone deacetylase 1 (Homo sapiens, UniProt Q13547). As to conditions: dose 100.0 nM, time 40.0 min.
The target in test [2] is T2, Protein deacetylase HDAC6 (Homo sapiens) (UniProt Q9UBN7).
T2 sequence (whole entry): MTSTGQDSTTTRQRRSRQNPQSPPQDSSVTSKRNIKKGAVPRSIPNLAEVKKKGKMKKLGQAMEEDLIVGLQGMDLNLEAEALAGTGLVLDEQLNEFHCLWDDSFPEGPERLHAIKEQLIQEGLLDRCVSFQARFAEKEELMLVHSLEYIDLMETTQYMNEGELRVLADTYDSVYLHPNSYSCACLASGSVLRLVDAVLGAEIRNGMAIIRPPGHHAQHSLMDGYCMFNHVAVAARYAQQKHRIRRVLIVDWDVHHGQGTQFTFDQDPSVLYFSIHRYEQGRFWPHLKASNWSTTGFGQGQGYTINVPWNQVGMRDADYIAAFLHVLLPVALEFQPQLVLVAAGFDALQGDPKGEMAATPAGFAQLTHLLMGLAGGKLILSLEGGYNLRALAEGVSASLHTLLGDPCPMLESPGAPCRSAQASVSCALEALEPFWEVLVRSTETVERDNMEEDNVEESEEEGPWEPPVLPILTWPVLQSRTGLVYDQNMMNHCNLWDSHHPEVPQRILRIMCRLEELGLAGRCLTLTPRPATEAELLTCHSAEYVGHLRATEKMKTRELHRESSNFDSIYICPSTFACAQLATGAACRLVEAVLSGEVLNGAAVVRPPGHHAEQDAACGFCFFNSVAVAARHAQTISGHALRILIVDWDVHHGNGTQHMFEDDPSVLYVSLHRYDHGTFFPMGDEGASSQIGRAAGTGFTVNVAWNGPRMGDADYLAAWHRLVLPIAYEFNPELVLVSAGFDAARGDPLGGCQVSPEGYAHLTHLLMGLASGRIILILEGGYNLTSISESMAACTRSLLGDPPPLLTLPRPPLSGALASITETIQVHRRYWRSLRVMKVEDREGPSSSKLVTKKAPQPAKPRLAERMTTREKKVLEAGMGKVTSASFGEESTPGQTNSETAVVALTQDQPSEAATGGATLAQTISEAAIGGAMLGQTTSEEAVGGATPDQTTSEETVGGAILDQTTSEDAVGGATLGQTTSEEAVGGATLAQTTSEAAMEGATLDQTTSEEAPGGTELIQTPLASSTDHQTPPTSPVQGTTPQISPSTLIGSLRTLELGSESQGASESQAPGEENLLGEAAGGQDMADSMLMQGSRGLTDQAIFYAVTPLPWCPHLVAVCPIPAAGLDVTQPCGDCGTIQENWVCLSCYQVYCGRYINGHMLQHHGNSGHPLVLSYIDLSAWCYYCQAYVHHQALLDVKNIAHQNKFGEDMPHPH
The conditions noted are these: Sf9, dose 100.0 nM, time 40.0 min.

In test [3] the target is T3, Protein deacetylase HDAC6 (Homo sapiens, UniProt Q9UBN7).
T3 sequence (Q9UBN7 whole entry): T2 sequence (whole entry)
As to the kind of experiment: Inhibition of recombinant full length human HDAC6 expressed in baculovirus infected Sf9 cells using Z-(Ac)-Lys-AMC as substrate incubated for 40 mins by fluorescence based assay.

In test [4] the test system is MGC-803. The experiment in a line: Antiproliferative activity against human MGC803 cells incubated for 72 hrs by MTT assay. It is filed as functional, cell-based. The conditions noted are these: MGC-803, 72 h. (In general: Tetrazolium assays rely on reduction of a dye to a coloured formazan, in cell work by metabolically active cells.)
The target of test [5] is T1, Histone deacetylase 1. The experiment in a line: Inhibition of recombinant human HDAC1 using Z-(Ac)-Lys-AMC as substrate incubated for 40 mins by fluorescence based assay.

Molecules are shown by their SMILES.

T1 sequence (Q13547 whole entry): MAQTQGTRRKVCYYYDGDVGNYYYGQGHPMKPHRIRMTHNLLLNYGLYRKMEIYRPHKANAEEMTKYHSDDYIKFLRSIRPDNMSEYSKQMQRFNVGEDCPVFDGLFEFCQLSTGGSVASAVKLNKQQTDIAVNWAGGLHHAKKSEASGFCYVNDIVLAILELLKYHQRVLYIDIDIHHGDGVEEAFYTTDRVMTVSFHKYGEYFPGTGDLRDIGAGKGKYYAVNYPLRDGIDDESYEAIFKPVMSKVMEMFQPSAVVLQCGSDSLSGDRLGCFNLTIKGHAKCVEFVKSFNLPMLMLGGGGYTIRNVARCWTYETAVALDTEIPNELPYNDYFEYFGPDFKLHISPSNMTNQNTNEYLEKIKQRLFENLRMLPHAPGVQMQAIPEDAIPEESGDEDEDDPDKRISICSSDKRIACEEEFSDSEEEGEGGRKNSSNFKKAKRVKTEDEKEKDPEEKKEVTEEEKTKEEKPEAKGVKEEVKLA

A word on the inhibition: it is the drop in the measured response relative to a control, in per cent. Higher therefore signals a strong effect. Broadly, the IC50 is the concentration at which inhibition is half-maximal. For `O=C(NO)c1ccc(NCc2nc(-c3ccccc3)nn2-c2ccccc2Cl)cc1`, the inhibition in test [1] came to 17%; in test [2], 64.6%. In addition, the IC50 in test [3] came to 0.669 µM; in test [4], 9.63 µM; in test [5], 3.12 µM.

Take `O=C(NO)c1ccc(NCc2nc(-c3cccc(Cl)c3)nn2-c2ccccc2)cc1`: the inhibition was 17% in test [1] and 61.2% in test [2]. Also, the results for the IC50 in test [3], in test [4] and in test [5] were 0.115 µM, 5.76 µM and 1.87 µM, respectively.

Turning to `Cc1ccsc1-c1nc(CNc2ccc(C(=O)NO)cc2)n(-c2ccccc2)n1`, the inhibition was 26.3% in test [1] and 72.1% in test [2]. The results for the IC50 in test [3], in test [4] and in test [5] were 0.0307 µM, 8.89 µM and 3.2 µM, respectively.

For `Cc1ccc(-c2nc(CNc3ccc(C(=O)NO)cc3)n(-c3ccccc3)n2)cc1`, the inhibition in test [1] turned out to be 20.3%; in test [2], 62.2%. The IC50 in test [3] was 0.224 µM; in test [4], above 20 µM; in test [5], 3.1 µM.

Consider `Cc1cccc(-n2nc(-c3ccccc3)nc2CNc2ccc(C(=O)NO)cc2)c1`, for which the inhibition in test [1] is 18.4%; in test [2] it was 66%. Also, the IC50 worked out at 0.388 µM in test [3], 13.2 µM in test [4] and 3.85 µM in test [5].

With `O=C(NO)c1ccc(NCc2nc(-c3cccs3)nn2-c2ccc(O)cc2)cc1`, the inhibition in test [1] is 38.4%; in test [2], 79.6%. Moreover, the IC50 in test [3] is 0.0335 µM; in test [4], above 20 µM; in test [5], 1.5 µM.
